From article PMC8275550, “Developmental Neurotoxicity of Fipronil and Rotenone on a Human Neuronal In Vitro Test System” (Neurotoxicity Research, 2021)

Assays:
[1] = test system: zebrafish embryo; settings: cited from earlier work
[2] = test system: NT2 precursor cells; assay: cells; format: cell-based, human
Protocol: (§1) As established before (Stern et al. [2014]), NT2 precursor cells were seeded in 96-mm bacteriological grade Petri dishes (Greiner, Hamburg, Germany) at a density of 4 × 10^6–5 × 10^6 cells per dish. Within 24 h, cells formed free-floating spherical aggregates of 300–800 µm diameter. On the first day, 10 ml of culture medium was added to each Petri dish. On the next days, medium with 10 μM retinoic acid (RA) was added and changed every 2–3 days by transferring the cell suspension to centrifuge tubes and centrifuge at 200 × g for 7 min. After 9 days in culture, aggregates were gently resuspended using a Pasteur pipette, and seeded at 60,000 cells per well into black 96-well plates with flat transparent bottom (Nunc). Plates were lined with poly-D-lysine and laminin (10 µg/ml each), equipped with silicone stoppers from the Oris Cell Migration Assay (AMS Biotechnology, Abingdon, UK). Cells were allowed to adhere overnight. On the next day, stoppers were pulled leaving a monolayer of cells with a circular hole of 2-mm diameter. […] After one wash in PBS, cells were fixed for 15 min in PFA, washed twice in PBS-T and stained with DAPI (0.5 µg/ml) for 5 min, followed by two washes in PBS. A black 96-hole plastic mask leaving a central circular area of 2-mm diameter for each well was clipped to the bottom of the plate. This allows viewing only those cells that had migrated into the free areas left by the silicone stoppers during seeding (Fig. 1b). Migration was quantified by taking two photographs of each well and measuring the distance of the migration front from the black margin of the mask in using ImageJ. Occasional asymmetries caused by slight inaccuracies of silicone stopper placement were compensated by averaging measurements in four quadrants per well. […] Average null-migration values were subtracted from migrated distance before evaluation.

[3] = test system: differentiating NT2 cells; assay: Resazurin reduction viability assay in the neuronal differentiation assay; format: cell-based, human; settings: differentiation assay, 5 days exposure; read-out: IC50 general cytotoxicity (resazurin), unspec. EP
Protocol: (§2) As established in our previous study (Stern et al. [2014]), cells were seeded into 96-well plates (Corning Costar, Kaiserslautern, Germany) at 80,000 cells per well and incubated in DMEM/F12 with 10 µM retinoic acid (RA) for 4 days (one media change). Cells were incubated for further 5 days (one media change) in media containing 10 µM RA and up to seven concentrations of a test compound. On day 9 (5-day exposition), cell viability was measured using a resazurin reduction assay (Trinova Biochem, Giessen, Germany). Subsequently, cells were fixed for 15 min in PFA and immunolabeled for ß-tubulin type III as above (Fig. 1a). For control purposes, photographs were taken at × 20 magnification as above. Neuronal differentiation was determined by measuring red fluorescence (excitation 568 nm, emission 603 nm) in a multiwell-plate reader (Infinite 200, TECAN, Germany). As a confirmation of the viability data, cell number was also quantified by measuring DAPI fluorescence (excitation 350 nm, emission 488 nm).

[4] = as above; format: cell-based, human; settings: human
Protocol: as §2

[5] = in vitro; settings: human
Protocol: Dispersed cells were seeded into two identical poly-D-lysine (10 µg/ml) coated 96-well plates (Corning Costar, Kaiserslautern, Germany) at a density of 10,000 cells per well. Cultures were exposed to up to seven different concentrations of a test compound in DMEM/F12 (six technical replicates per concentration) for 24 h. One plate was immediately fixed in 4% paraformaldehyde in PBS (PFA) for 15 min. After 24 h, while a resazurin reduction assay (2 h) was performed on the other plate. […] Fixed cells were washed in PBS containing 0.1% Triton X100 (PBS-T) and immunolabeled for ß-tubulin type III (monoclonal anti ßtubIII, 1:20,000) using a red fluorescent secondary antibody (goat anti mouse-alexaFluor568, Invitrogen, Germany, 1:250) and DAPI (0.1 µg/ml) as nuclear counterstain. Cells were examined on a Zeiss Axiovert 200 inverted microscope equipped with a CoolSnap camera (Photometrics, Tucson, AZ, USA) and MetaMorph software (Molecular Devices, Sunnyvale, CA, USA), or a Zeiss Axiocam50 mono and Zeiss ZENlite 2.6 blue edition software. Two photographs/well at × 20 magnification were taken. Lengths of all neurites in the field of view were measured in ImageJ (http://imagej.nih.gov/ij) using the ‚segmented line ‘ tool (Fig. 1c) and divided by the number of ß-tubulin III-positive cells.

[6] = test system: NT2 neurons; assay: cells; format: cell-based, human; settings: Homo sapiens; 24 h exposure; total neurite length/neuron; normalized to solvent control; read-out: IC50 neurite outgrowth (spec. EP)
From the text: Two photographs/well at × 20 magnification were taken.

[7] = test system: SH-SY5Ycells; design: method as in Ruangjaroon et al. [2017]; settings: incompletely differentiated cells; ref Ruangjaroon et al. [2017]; cited from earlier work
[8] = test system: insect GABAa receptors; design: method as in Hainzl et al. [1996]; settings: ref Hainzl et al. [1996]; cited from earlier work
[9] = Resazurin reduction viability assay in the cell migration assay; format: cell-based; settings: human; migration assay, 44 h exposure; > = highest tested concentration; read-out: IC50 general cytotoxicity (resazurin), unspec. EP
Protocol: as §1

[10] = test system: differentiating NT2 cells; assay: cells; format: cell-based, human
Protocol: as §2

[11] = test system: N2a neuroblastoma cells; design: method as in Sidiropoulou et al. ([2011]); settings: ref Sidiropoulou et al. ([2011]); cited from earlier work
[12] = yes = at least one concentration of rescuing compound with specific endpoint significantly less affected

Which results are given for N#Cc1nn(-c2c(Cl)cc(C(F)(F)F)cc2Cl)c(N)c1[S+]([O-])C(F)(F)F (centres unmarked) [Fipronil, 5-Amino-1-[2,6-dichloro-4-(trifluoromethyl)phenyl]-4-(trifluoromethylsulfinyl)pyrazole-3-carbonitrile]?
Concentration inhibiting zebrafish neurogenesis ([1]; via reduction of gene expression for neuron/glia differentiation, ref Park et al. [2020]): ~ 33 µM; Concentration disturbing development of motor circuits ([1]; zebrafish embryo, ref Stehr et al. [2006]): 0.7 µM; Concentrations with significant differences between viability and migration ([2]; 44 h exposure): ≥ 15.63 µM; IC50 ([2]; Homo sapiens, 44 h exposure, read-out: IC50 migration (spec. EP)): 25.1 µM; Rescue by NAC, migration [2, 12]: yes; IC50 [3]: 23.4 µM; viability ([4]; 15.6 µM fipronil, read-out: General viability (% of control)): > 90%; IC50 ([4]; differentiation assay, 5 days exposure, read-out: IC50 general cytotoxicity (resazurin), unspec. EP): 23.2 µM; IC50 [5]: > 62.5 µM; IC50 [6]: > 62.5 µM; Concentration reducing process outgrowth of vimentin-positive protrusions, but not viability [7]: 25 µM; Higher affinity to insect GABAa receptors than to vertebrate GABA receptors [8]: more than 100 fold; IC50 [9]: > 62.5 µM; IC50 ([10]; Homo sapiens, NT2, 120 h, 5 days exposure, read-out: IC50 neuronal differentiation (ß-tub III, spec. EP)): 14.8 µM; activity at 15.6 µM ([10]; Homo sapiens, NT2, 15.6 µM fipronil, read-out: ß-tubulin III-immunofluorescence (% of control)): < 50%; Rescue by NAC, neuronal differentiation [10, 12]: yes; Concentration reducing outgrowth of axon-like processes [11]: 1 µM
